Results published in US12024510B2, “Pyrazolopyridine-diamides, their use as insecticide and processes for preparing the same” (PI INDUSTRIES LTD., priority 2017, dated 2024).

How the values were obtained:
Assay type in all cases: in vivo
[1] = tested on: Plutella xylostella; assay: whole plant or invertebrate; conditions: foliar, cabbage leaf dip, second instar larvae, dead and moribund combined, 72 h after release
Summary of the method: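 Compounds milled with zirconia beads into surfactant dispersion (500 ppm stock), diluted in 0.01% Triton-X. Cabbage leaves dipped 10 s, shade-dried 20 min; one second-instar larva per cell, 25 °C, 70% RH. Mortality (dead plus moribund) scored at 72 h.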

[2] = tested on: Spodoptera litura; assay: Spodoptera litura diet incorporation method; conditions: third instar larvae, dead and moribund combined, 96 h after release
Summary of the method: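 Compound milled to <2 μm average particle size in surfactant, dispersed in water (500 ppm stock dispersion), then mixed into semi-synthetic diet at ~50° C. One starved third-instar larva per diet cell, 25° C, 70% RH; percent mortality (dead plus moribund) scored at 96 h.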

[3] = tested on: Helicoverpa armigera; assay: Helicoverpa armigera diet incorporation method; conditions: third instar larvae, dead and moribund combined, 96 h after release
Summary of the method: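 500 ppm stock of compound milled with surfactant and zirconia beads to average particle size below 2 μm, dispersed in DM water, diluted as needed, and mixed into semi-synthetic diet at about 50° C. Single starved third-instar larvae per cell, held at 25° C., 70% RH; dead plus moribund larvae scored as percent mortality at 96 h.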

Measured: mortality at 300 ppm

COc1cc(C(=O)Nc2c(C)cc3ccnn3c2C(=O)NC2CSC2)n(-c2ncccc2Cl)n1 [Compound 215, 6-(1-(3-chloropyridin-2-yl)-3-methoxy-1H-pyrazole-5-carboxamido)-5-methyl-N-(thietan-3-yl)pyrazolo[1,5-a]pyridine-7-carboxamide]
> 70%: all assays above

Cc1cc2ccnn2c(C(=O)NC(C)C)c1NC(=O)c1cc(C(F)(F)F)nn1-c1ncccc1Cl [Compound 60, 6-(1-(3-chloropyridin-2-yl)-3-(trifluoromethyl)-1H-pyrazole-5-carboxamido)-N-isopropyl-5-methylpyrazolo[1,5-a]pyridine-7-carboxamide]
> 70%: all assays above

Cc1cc2ccnn2c(C(=O)NCC2CC2)c1NC(=O)c1cc(N2CC(F)(F)C2)nn1-c1ncccc1Cl [Compound 67, 6-(1-(3-chloropyridin-2-yl)-3-(3,3-difluoroazetidin-1-yl)-1H-pyrazole-5-carboxamido)-N-(cyclopropylmethyl)-5-methylpyrazolo[1,5-a]pyridine-7-carboxamide]
> 70%: all assays above

C#CCNC(=O)c1c(NC(=O)c2cc(OC)nn2-c2ncccc2Cl)c(C)cc2ccnn12 [Compound 45, 6-(1-(3-chloropyridin-2-yl)-3-methoxy-1H-pyrazole-5-carboxamido)-5-methyl-N-(prop-2-yn-1-yl)pyrazolo[1,5-a]pyridine-7-carboxamide]
> 70%: all assays above

CONC(=O)c1c(NC(=O)c2cc(Br)nn2-c2ncccc2Cl)c(Br)cc2ccnn12 [Compound 87, 5-bromo-6-(3-bromo-1-(3-chloropyridin-2-yl)-1H-pyrazole-5-carboxamido)-N-methoxypyrazolo[1,5-a]pyridine-7-carboxamide]
> 70%: all assays above

CSCCNC(=O)c1c(NC(=O)c2cc(Br)nn2-c2ncccc2Cl)c(C)cc2ccnn12 [Compound 37, 6-(3-bromo-1-(3-chloropyridin-2-yl)-1H-pyrazole-5-carboxamido)-5-methyl-N-(2-(methylthio)ethyl)pyrazolo[1,5-a]pyridine-7-carboxamide]
> 70%: all assays above

COc1cc(C(=O)Nc2c(Cl)cc3ccnn3c2C(=O)NC2CC2)n(-c2ncccc2Cl)n1 [Compound 132, 5-chloro-6-(1-(3-chloropyridin-2-yl)-3-methoxy-1H-pyrazole-5-carboxamido)-N-cyclopropylpyrazolo[1,5-a]pyridine-7-carboxamide]
> 70%: all assays above

COc1cc(C(=O)Nc2c(C)cc3ccnn3c2C(=O)NCC#N)n(-c2ncccc2Cl)n1 [Compound 40, 6-(1-(3-chloropyridin-2-yl)-3-methoxy-1H-pyrazole-5-carboxamido)-N-(cyanomethyl)-5-methylpyrazolo[1,5-a]pyridine-7-carboxamide]
> 70%: all assays above

Cc1cc2ccnn2c(C(=O)NC(C)(C)C)c1NC(=O)c1cc(Br)nn1-c1ncccc1Cl [Compound 8, 6-(3-bromo-1-(3-chloropyridin-2-yl)-1H-pyrazole-5-carboxamido)-N-(tert-butyl)-5-methylpyrazolo[1,5-a]pyridine-7-carboxamide]
> 70%: all assays above

Cc1cc2ccnn2c(C(=O)NC2CC2)c1NC(=O)c1cc(Br)nn1-c1ncccc1Cl [Compound 5, 6-(3-bromo-1-(3-chloropyridin-2-yl)-1H-pyrazole-5-carboxamido)-N-cyclopropyl-5-methylpyrazolo[1,5-a]pyridine-7-carboxamide]
> 70%: all assays above

CCNC(=O)c1c(NC(=O)c2cc(OC)nn2-c2ncccc2Cl)c(Cl)cc2ccnn12 [Compound 134, 5-chloro-6-(1-(3-chloropyridin-2-yl)-3-methoxy-1H-pyrazole-5-carboxamido)-N-ethylpyrazolo[1,5-a]pyridine-7-carboxamide]
> 70%: all assays above

CCNC(=O)c1c(NC(=O)c2cc(Br)nn2-c2ncccc2Cl)ccc2ccnn12 [Compound 157, 6-(3-bromo-1-(3-chloropyridin-2-yl)-1H-pyrazole-5-carboxamido)-N-ethylpyrazolo[1,5-a]pyridine-7-carboxamide]
> 70%: all assays above

COc1cc(C(=O)Nc2c(C)cc3ccnn3c2C(=O)NCC2CC2)n(-c2ncccc2Cl)n1 [Compound 27, 6-(1-(3-chloropyridin-2-yl)-3-methoxy-1H-pyrazole-5-carboxamido)-N-(cyclopropylmethyl)-5-methylpyrazolo[1,5-a]pyridine-7-carboxamide]
> 70%: all assays above

COc1cc(C(=O)Nc2c(Br)cc3ccnn3c2C(=O)NC(C)C(F)(F)F)n(-c2ncccc2Cl)n1 (stereo not drawn) [Compound 226, 5-bromo-6-(1-(3-chloropyridin-2-yl)-3-methoxy-1H-pyrazole-5-carboxamido)-N-(1,1,1-trifluoropropan-2-yl)pyrazolo[1,5-a]pyridine-7-carboxamide]
> 70%: all assays above

Cc1cc2ccnn2c(C(=O)NC2CC2)c1NC(=O)c1cc(OCC(F)(F)F)nn1-c1ncccc1Cl [Compound 13, 6-(1-(3-chloropyridin-2-yl)-3-(2,2,2-trifluoroethoxy)-1H-pyrazole-5-carboxamido)-N-cyclopropyl-5-methylpyrazolo[1,5-a]pyridine-7-carboxamide]
> 70%: all assays above

CCCNC(=O)c1c(NC(=O)c2cc(Br)nn2-c2ncccc2Cl)c(Br)cc2ccnn12 [Compound 50, 5-bromo-6-(3-bromo-1-(3-chloropyridin-2-yl)-1H-pyrazole-5-carboxamido)-N-propylpyrazolo[1,5-a]pyridine-7-carboxamide]
> 70%: all assays above

CCNC(=O)c1c(NC(=O)c2cc(OCC(F)(F)F)nn2-c2ncccc2Cl)c(C)cc2ccnn12 [Compound 10, 6-(1-(3-chloropyridin-2-yl)-3-(2,2,2-trifluoroethoxy)-1H-pyrazole-5-carboxamido)-N-ethyl-5-methylpyrazolo[1,5-a]pyridine-7-carboxamide]
> 70%: all assays above

CCNC(=O)c1c(NC(=O)c2cc(Cn3nnc(C(F)(F)F)n3)nn2-c2ncccc2Cl)c(C)cc2ccnn12 [Compound 167, 6-(1-(3-chloropyridin-2-yl)-3-((5-(trifluoromethyl)-2H-tetrazol-2-yl)methyl)-1H-pyrazole-5-carboxamido)-N-ethyl-5-methylpyrazolo[1,5-a]pyridine-7-carboxamide]
> 70%: all assays above

CONC(=O)c1c(NC(=O)c2cc(Br)nn2-c2ncccc2Cl)c(C)cc2ccnn12 [Compound 24, 6-(3-bromo-1-(3-chloropyridin-2-yl)-1H-pyrazole-5-carboxamido)-N-methoxy-5-methylpyrazolo[1,5-a]pyridine-7-carboxamide]
> 70%: all assays above

COCCNC(=O)c1c(NC(=O)c2cc(Br)nn2-c2ncccc2Cl)c(C)cc2ccnn12 [Compound 7, 6-(3-bromo-1-(3-chloropyridin-2-yl)-1H-pyrazole-5-carboxamido)-N-(2-methoxyethyl)-5-methylpyrazolo[1,5-a]pyridine-7-carboxamide]
> 70%: all assays above

Cc1cc2ccnn2c(C(=O)NCC(F)(F)F)c1NC(=O)c1cc(C(F)(F)F)nn1-c1ncccc1Cl [Compound 109, 6-(1-(3-chloropyridin-2-yl)-3-(trifluoromethyl)-1H-pyrazole-5-carboxamido)-5-methyl-N-(2,2,2-trifluoroethyl)pyrazolo[1,5-a]pyridine-7-carboxamide]
> 70%: all assays above

CCCNC(=O)c1c(NC(=O)c2cc(OC)nn2-c2ncccc2Cl)c(C)cc2ccnn12 [Compound 29, 6-(1-(3-chloropyridin-2-yl)-3-methoxy-1H-pyrazole-5-carboxamido)-5-methyl-N-propylpyrazolo[1,5-a]pyridine-7-carboxamide]
> 70%: all assays above

Cc1cc2ccnn2c(C(=O)NC(C)C)c1NC(=O)c1cc(Oc2cc(C(F)(F)F)nn2C)nn1-c1ncccc1Cl [Compound 71, 6-(1-(3-chloropyridin-2-yl)-3-((1-methyl-3-(trifluoromethyl)-1H-pyrazol-5-yl)oxy)-1H-pyrazole-5-carboxamido)-N-isopropyl-5-methylpyrazolo[1,5-a]pyridine-7-carboxamide]
> 70%: all assays above
